Reference: US5763587A, “Process for the synthesis of amikacin” (Gist Brocades Italy Spa, priority 1987, dated 1998)

How the values were obtained:
mice = experiment: Comparison of death rate, toxicity and acute general tolerability in mice by intravenous administration; type: in vivo
Description: (§1) Some experiments have been thus carried out for the comparison of the death rate, toxicity and acute general tolerability, between the product available in the market from Bristol Myers (BB-K8), amikacin produced according to the synthesis of the present invention and the potential impurities (BB K11, BB K29 and the diacylate with L-HABA at N-1 and N-3"), in mice by intravenous administration (caudal vein) to groups of 10 animals. The LD50 values have been calculated by the Finney-Probits method.

[1] = as above; type: in vivo; settings: mouse, in vivo, iv, mice, intravenous (caudal vein), groups of 10 animals, Finney-Probits method
Description: as §1

## NCC[C@H](O)C(=O)N[C@@H]1C[C@H](N)[C@@H](O[C@H]2O[C@H](CN)[C@@H](O)[C@H](O)[C@H]2O)[C@H](O)[C@H]1O[C@H]1O[C@H](CO)[C@@H](O)[C@H](N)[C@H]1O [Amikacin, 0-3-amino-3-desoxy-alpha-D-glucopyranosyl-(1→6)-0-[6--amino-6-desoxy-alpha-D-glucopyranosyl-(1→)]-N^1-(4-amino-2-hydroxy-1-oxybutyl)-2-desoxy-D-streptamine]
mice; mice, intravenous (caudal vein), groups of 10 animals, Finney-Probits method
  LD50: 241 mg/kg

## NCC[C@H](O)C(=O)N[C@@H]1C[C@H](N)[C@@H](O[C@H]2O[C@H](CN)[C@@H](O)[C@H](O)[C@H]2O)[C@H](O)[C@H]1O[C@H]1O[C@H](CO)[C@@H](O)[C@H](N)[C@H]1O [BB-K8 Bristol]
[1]
  LD50: 202 mg/kg

## NCC[C@H](O)C(=O)N[C@@H]1[C@@H](O)[C@@H](O[C@@H]2[C@@H](O)[C@H](O[C@H]3O[C@H](CN)[C@@H](O)[C@H](O)[C@H]3O)[C@@H](N)C[C@H]2N)O[C@H](CO)[C@H]1O [BB-K11]
mice
  toxicity compared with BB-K29 (in words): lower
[1]
  LD50: 356 mg/kg

## NCC[C@H](O)C(=O)N[C@H]1C[C@@H](N)[C@H](O[C@H]2O[C@H](CO)[C@@H](O)[C@H](N)[C@H]2O)[C@@H](O)[C@@H]1O[C@H]1O[C@H](CN)[C@@H](O)[C@H](O)[C@H]1O [BB-K29]
mice
  toxicity compared with amikacin (in words): more toxic than amikacin
[1]
  LD50: 126 mg/kg

## NCC[C@H](O)C(=O)N[C@@H]1[C@@H](O)[C@@H](O[C@@H]2[C@@H](O)[C@H](O[C@H]3O[C@H](CN)[C@@H](O)[C@H](O)[C@H]3O)[C@@H](N)C[C@H]2NC(=O)[C@@H](O)CCN)O[C@H](CO)[C@H]1O [Diacylate (N-1 and N-3")]
mice
  toxicity compared with BB-K29 (in words): lower
[1]
  LD50: 268 mg/kg
